Experiments:
5HT1A = target: T1, 5HT1A (Homo sapiens, UniProt P08908); experiment: Competitive radioligand binding, 5HT1A; settings: HEK293 membranes, 3H-8-OH-DPAT 0.5 nM; read-out: pIC50 5HT1A (converted)
T1 construct: expressed in transfected cells; host or cells: HEK293 (membrane fraction)
T1 sequence (P08908 1-422): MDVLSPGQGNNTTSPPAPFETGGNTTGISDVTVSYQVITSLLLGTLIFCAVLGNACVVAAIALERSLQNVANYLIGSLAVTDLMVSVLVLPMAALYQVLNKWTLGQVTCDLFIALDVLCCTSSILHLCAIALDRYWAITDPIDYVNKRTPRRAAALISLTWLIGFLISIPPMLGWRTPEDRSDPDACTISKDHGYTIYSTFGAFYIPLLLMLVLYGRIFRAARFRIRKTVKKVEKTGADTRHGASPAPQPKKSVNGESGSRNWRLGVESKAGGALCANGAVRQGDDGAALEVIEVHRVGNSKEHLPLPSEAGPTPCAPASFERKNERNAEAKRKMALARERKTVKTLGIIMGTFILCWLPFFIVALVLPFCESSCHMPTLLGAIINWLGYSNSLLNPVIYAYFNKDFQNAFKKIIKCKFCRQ
Protocol: (§1) Competitive radioligand binding assays were used to determine the affinity of the test compounds for a particular receptor. Various concentrations of the non-labelled test compound were added to the incubation mixture with the membrane fraction, containing the receptor of interest, and a fixed low concentration (nM) of the radioligand. During the incubation the radioligand bound to the receptor, but this was inhibited by the non-labelled test compound in proportion to its binding affinity and concentration.
(§2) Cell lines were established that stably express the human variant of the receptor under investigation after transfection with the appropriate cDNA (Table 1). Transfected cells were grown under standard culture conditions, and membrane fractions were obtained upon centrifugation and homogenisation of the cells. Optimal membrane dilutions for binding studies were determined and aliquots were stored at −70° C. until use. In a 96-well plate format, the appropriate radioligand was added to the membrane preparation containing the receptor under investigation. Compound solutions were prepared in DMSO, and diluted 100-fold into the multiwell plate to a final test concentration of 10^−9 to 10^−5 M. After incubation with the test compound, the unbound radioligand was removed by filtration on G/F filters with a Filtermate 96. Microscint™ was added to the washed filter plates and the radioactivity bound to the receptor was measured by liquid scintillation counting in a TopCount (Packard). To measure the Non-Specific Binding (NSB), a high concentration of the non-radiolabeled ligand was added to wells containing the membrane fraction and the radioligand.
(§3) Using in house developed software, a best-fit curve was fitted by a minimum sum of squares method to the plot of % inhibition vs. concentration of the test compound. From this, the pIC50 value (inhibitory concentration causing 50% displacement of specific binding) was determined, as well as an estimate of the slope of the plot (Hill coefficient).

5HT2C = target: T2, 5HT2C (Homo sapiens, UniProt P28335); experiment: Competitive radioligand binding, 5HT2C; settings: CHO membranes, 3H-mesulergin 1 nM; read-out: pIC50 5HT2C (converted)
T2 construct: expressed in transfected cells; host or cells: CHO (membrane fraction)
T2 sequence (P28335 33-458): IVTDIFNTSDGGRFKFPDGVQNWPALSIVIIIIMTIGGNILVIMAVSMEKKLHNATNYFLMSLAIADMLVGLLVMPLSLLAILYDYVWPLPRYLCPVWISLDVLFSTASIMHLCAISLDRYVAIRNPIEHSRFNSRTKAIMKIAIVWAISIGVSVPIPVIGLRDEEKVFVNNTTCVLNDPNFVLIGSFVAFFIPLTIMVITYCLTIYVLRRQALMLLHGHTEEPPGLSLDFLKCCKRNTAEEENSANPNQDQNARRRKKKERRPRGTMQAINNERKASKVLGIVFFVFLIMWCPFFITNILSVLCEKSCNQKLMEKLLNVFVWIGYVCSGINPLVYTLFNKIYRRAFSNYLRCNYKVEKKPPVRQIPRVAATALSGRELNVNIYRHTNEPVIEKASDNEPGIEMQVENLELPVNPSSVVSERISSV
Protocol: as §1, §2
(§4) From this, the pIC50 value (inhibitory concentration causing 50% displacement of specific binding) was determined, as well as an estimate of the slope of the plot (Hill coefficient).

Alpha2B = target: T3, Alpha2B (Homo sapiens, UniProt P18089); experiment: Competitive radioligand binding, Alpha2B; settings: CHO membranes, 3H-rauwolscine 1 nM; for IC50: read-out: pIC50 Alpha2B (converted)
T3 construct: expressed in transfected cells; host or cells: CHO (membrane fraction)
T3 sequence (P18089 1-450): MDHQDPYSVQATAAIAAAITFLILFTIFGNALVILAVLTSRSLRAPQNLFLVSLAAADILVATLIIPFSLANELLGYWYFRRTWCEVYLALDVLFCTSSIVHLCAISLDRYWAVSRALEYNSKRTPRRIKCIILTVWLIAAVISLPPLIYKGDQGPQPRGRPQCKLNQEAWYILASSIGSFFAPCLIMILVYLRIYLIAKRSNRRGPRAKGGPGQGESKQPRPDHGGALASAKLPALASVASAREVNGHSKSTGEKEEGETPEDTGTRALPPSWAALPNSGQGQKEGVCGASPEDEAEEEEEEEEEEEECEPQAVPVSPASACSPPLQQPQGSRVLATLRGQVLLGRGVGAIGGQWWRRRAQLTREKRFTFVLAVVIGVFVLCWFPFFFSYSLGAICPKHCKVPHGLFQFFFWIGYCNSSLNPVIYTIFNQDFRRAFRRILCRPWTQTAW
Protocol: as §1, §2

Alpha2C = target: T4, Alpha2C (Homo sapiens, UniProt P18825); experiment: Competitive radioligand binding, Alpha2C; settings: CHO membranes, 3H-rauwolscine 1 nM; for IC50: read-out: pIC50 Alpha2C (converted)
T4 construct: expressed in transfected cells; host or cells: CHO (membrane fraction)
T4 sequence (P18825 1-462): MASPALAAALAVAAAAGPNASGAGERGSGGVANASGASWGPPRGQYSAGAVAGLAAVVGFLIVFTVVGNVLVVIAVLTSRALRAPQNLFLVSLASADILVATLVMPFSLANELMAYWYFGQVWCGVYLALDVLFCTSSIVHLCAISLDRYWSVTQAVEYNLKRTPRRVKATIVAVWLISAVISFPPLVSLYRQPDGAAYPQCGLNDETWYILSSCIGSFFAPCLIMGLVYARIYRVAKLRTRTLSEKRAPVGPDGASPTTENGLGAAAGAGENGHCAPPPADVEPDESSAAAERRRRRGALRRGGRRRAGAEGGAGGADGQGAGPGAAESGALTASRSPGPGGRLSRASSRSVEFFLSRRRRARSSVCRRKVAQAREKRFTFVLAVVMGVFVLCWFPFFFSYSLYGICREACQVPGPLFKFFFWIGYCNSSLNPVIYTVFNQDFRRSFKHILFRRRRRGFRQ
Protocol: as §1, §2, §4

D2L = target: T5, D2L (Homo sapiens, UniProt P14416); experiment: Competitive radioligand binding, D2L; settings: CHO membranes, 3H-spiperone 0.2 nM; for IC50: read-out: pIC50 D2L (converted)
T5 construct: expressed in transfected cells; host or cells: CHO (membrane fraction)
T5 sequence (P14416 whole entry): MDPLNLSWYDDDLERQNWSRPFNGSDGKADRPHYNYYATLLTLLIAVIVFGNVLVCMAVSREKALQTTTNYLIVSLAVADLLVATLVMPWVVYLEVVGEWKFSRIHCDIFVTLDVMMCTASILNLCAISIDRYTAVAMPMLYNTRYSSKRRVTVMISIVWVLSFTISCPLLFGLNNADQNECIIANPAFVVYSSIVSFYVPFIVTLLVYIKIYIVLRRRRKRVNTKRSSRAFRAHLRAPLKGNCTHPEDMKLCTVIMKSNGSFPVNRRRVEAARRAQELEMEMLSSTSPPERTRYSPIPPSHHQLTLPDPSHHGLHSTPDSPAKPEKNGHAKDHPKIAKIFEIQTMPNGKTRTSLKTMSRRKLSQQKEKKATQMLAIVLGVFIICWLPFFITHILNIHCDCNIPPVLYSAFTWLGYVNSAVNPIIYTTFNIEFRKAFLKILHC
Protocol: as §1, §2, §3

| Compound | IC50 (5HT1A) | IC50 (5HT2C) | IC50 (Alpha2B) | IC50 (Alpha2C) | IC50 (D2L) | pIC50 D2L (D2L) | pIC50 Alpha2B (Alpha2B) | pIC50 Alpha2C (Alpha2C) |
| --- | --- | --- | --- | --- | --- | --- | --- | --- |
| COc1cc(N)c(Cl)cc1C(=O)N[C@@H]1CCN(CCCOc2ccc(F)cc2)C[C@H]1F (racemic) [(±)-7, trans-4-amino-5-chloro-N-{3-fluoro-1-[3-(4-fluorophenoxy)-propyl]-piperidin-4-yl}-2-methoxybenzamide] | 1.82 µM | 1.82 µM | 2.51 µM | 0.955 µM | 4.57 µM | – | – | – |
| COc1cc(N)c(Cl)cc1C(=O)N[C@H]1CCN(CCCOc2ccc(F)cc2)C[C@H]1F (racemic) [(±)-12, cis-4-amino-5-chloro-N-{3-fluoro-1-[3-(4-fluorophenoxy)-propyl]-piperidin-4-yl}-2-methoxybenzamide] | 4.17 µM | 4.37 µM | 2.51 µM | 2.09 µM | 4.68 µM | – | – | – |
| COc1cc(N)c(Cl)cc1C(=O)NC1CCN(CCCOc2ccc(F)cc2)CC1(F)F (racemic) [(±)-17, 4-amino-5-chloro-N-{3,3-difluoro-1-[3-(4-fluorophenoxy)-propyl]-piperidin-4-yl}-2-methoxybenzamide] | 7.94 µM | 4.68 µM | > 10 µM | > 10 µM | 10.5 µM | – | – | – |
| COc1cc(N)c(Cl)cc1C(=O)N[C@@H]1CCN(CCCOc2ccc(F)cc2)C[C@H]1F (single isomer, unassigned) [(+)-7, trans-4-amino-5-chloro-N-{3-fluoro-1-[3-(4-fluorophenoxy)-propyl]-piperidin-4-yl}-2-methoxybenzamide] | 0.676 µM | 1.23 µM | 2.63 µM | > 10 µM | 2.75 µM | – | – | – |
| COc1cc(N)c(Cl)cc1C(=O)N[C@H]1CCN(CCCOc2ccc(F)cc2)C[C@H]1F (single isomer, unassigned) [(+)-12, cis-4-amino-5-chloro-N-{3-fluoro-1-[3-(4-fluorophenoxy)-propyl]-piperidin-4-yl}-2-methoxybenzamide] | 0.741 µM | 5.01 µM | 3.39 µM | 1.95 µM | – | 5.32 | – | – |
| COc1cc(N)c(Cl)cc1C(=O)N[C@@H]1CCN(CCCOc2ccc(F)cc2)C[C@H]1F (single isomer, unassigned) [(−)-7, trans-4-amino-5-chloro-N-{3-fluoro-1-[3-(4-fluorophenoxy)-propyl]-piperidin-4-yl}-2-methoxybenzamide] | 1.1 µM | 3.72 µM | 6.03 µM | 1.17 µM | 7.94 µM | – | – | – |
| COc1cc(N)c(Cl)cc1C(=O)N[C@H]1CCN(CCCOc2ccc(F)cc2)C[C@H]1F (single isomer, unassigned) [(−)-12, cis-4-amino-5-chloro-N-{3-fluoro-1-[3-(4-fluorophenoxy)-propyl]-piperidin-4-yl}-2-methoxybenzamide] | 1.86 µM | 6.61 µM | 5.25 µM | 5.89 µM | 4.79 µM | – | – | – |
| COc1cc(N)c(Cl)cc1C(=O)NC1CCN(CCCOc2ccc(F)cc2)CC1(F)F (single isomer, unassigned) [Compound (−)-17, 4-amino-5-chloro-N-{3,3-difluoro-1-[3-(4-fluorophenoxy)-propyl]-piperidin-4-yl}-2-methoxybenzamide] | > 10 µM | 6.61 µM | – | – | – | <5 | <5 | <5 |
| COc1cc(N)c(Cl)cc1C(=O)NC1CCN(CCCOc2ccc(F)cc2)CC1(F)F (single isomer, unassigned; (+)) [(+)-17, 4-amino-5-chloro-N-{3,3-difluoro-1-[3-(4-fluorophenoxy)-propyl]-piperidin-4-yl}-2-methoxybenzamide] | 5.62 µM | > 10 µM | > 10 µM | > 10 µM | > 10 µM | – | – | – |
